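Values below derive from 48-hour exposures of cells grown in 96-well plates, with endpoints linearly interpolated between the two concentrations bracketing the appropriate inhibition level. TGI marks complete inhibition of growth.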
Legend:
Assay in all cases: NCI tumour cell line growth inhibition, 48 h
[1] = tested on: K-562 leukemia
[2] = tested on: OVCAR-5 ovarian
[3] = tested on: NCI/ADR-RES ovarian
[4] = tested on: SN12C renal
[5] = tested on: OVCAR-8 ovarian
[6] = tested on: HT29 colon
[7] = tested on: MDA-N
[8] = tested on: HOP-92 NSCLC
[9] = tested on: NCI-H23 lung
[10] = tested on: A498 renal
[11] = tested on: MDA-MB-435
[12] = tested on: RPMI-8226 leukemia
[13] = tested on: KM12 colon
[14] = tested on: ACHN renal
[15] = tested on: SF-539 CNS
[16] = tested on: RXF 393 renal
[17] = tested on: UACC-257 melanoma
[18] = tested on: COLO 205 colon
[19] = tested on: PC-3 prostate
[20] = tested on: U251 CNS
[21] = tested on: LOX IMVI melanoma
[22] = tested on: SK-OV-3 ovarian
[23] = tested on: SF-268 CNS
[24] = tested on: HCT-15 colon
[25] = tested on: HCT-116 colon
[26] = tested on: T-47D breast
[27] = tested on: EKVX NSCLC
[28] = tested on: HL-60(TB) leukemia
[29] = tested on: MOLT-4 leukemia
[30] = tested on: SK-MEL-2 melanoma
[31] = tested on: SR leukemia
[32] = tested on: A549 NSCLC
[33] = tested on: UO-31 renal
[34] = tested on: IGROV1 ovarian
[35] = tested on: UACC-62 melanoma
[36] = tested on: BT-549 breast
[37] = tested on: MDA-MB-231 breast
[38] = tested on: SNB-75 CNS
[39] = tested on: SK-MEL-5 melanoma
[40] = tested on: SNB-19 CNS
[41] = tested on: SF-295 CNS
[42] = tested on: NCI-H226 lung
[43] = tested on: CCRF-CEM leukemia
[44] = tested on: 786-0 renal
[45] = tested on: SK-MEL-28 melanoma
[46] = tested on: HS 578T breast
[47] = tested on: OVCAR-4 ovarian
[48] = tested on: OVCAR-3 ovarian
[49] = tested on: NCI-H460 lung
[50] = tested on: M14 melanoma
[51] = tested on: DU-145 prostate
[52] = tested on: HOP-62 NSCLC
[53] = tested on: TK-10 renal
[54] = tested on: MCF7 breast
[55] = tested on: SW-620 colon
[56] = tested on: MALME-3M melanoma
[57] = tested on: NCI-H522 lung
[58] = tested on: CAKI-1 renal
[59] = tested on: HCC-2998 colon

With `CC(=O)OC12CC[N+]3(C)CCCCC3C1=Nc1ccccc12` (stereo not given) the TGI [1] was > 100 µM, the TGI [2] was > 100 µM and the TGI [3] was > 100 µM. The TGI [4] was > 100 µM, the TGI [5] was > 100 µM and the TGI [6] was > 100 µM. The TGI [7] was > 100 µM, the TGI [8] was > 100 µM and the TGI [9] was > 100 µM. The TGI [10] was > 100 µM, the TGI [11] was > 100 µM and the TGI [12] was > 100 µM. The TGI [13] was > 100 µM, the TGI [14] was > 100 µM and the TGI [15] was > 100 µM. For the same compound, the TGI [16] was > 100 µM, the TGI [17] was > 100 µM and the TGI [18] was > 100 µM. For the same compound, the TGI [19] was > 100 µM, the TGI [20] was > 100 µM and the TGI [21] was > 100 µM. The TGI [22] was > 100 µM, the TGI [23] was > 100 µM and the TGI [24] was > 100 µM. For the same compound, the TGI [25] was > 100 µM, the TGI [26] was > 100 µM and the TGI [27] was > 100 µM. The TGI [28] was > 100 µM, the TGI [29] was > 100 µM and the TGI [30] was > 100 µM. For the same compound, the TGI [31] was > 100 µM, the TGI [32] was > 100 µM and the TGI [33] was > 100 µM. The TGI [34] was > 100 µM, the TGI [35] was > 100 µM and the TGI [36] was > 100 µM. For the same compound, the TGI [37] was > 100 µM, the TGI [38] was > 100 µM and the TGI [39] was > 100 µM. The TGI [40] was > 100 µM, the TGI [41] was > 100 µM and the TGI [42] was > 100 µM. For the same compound, the TGI [43] was > 100 µM, the TGI [44] was > 100 µM and the TGI [45] was > 100 µM. The TGI [46] was > 100 µM, the TGI [47] was > 100 µM and the TGI [48] was > 100 µM. The TGI [49] was > 100 µM, the TGI [50] was > 100 µM and the TGI [51] was > 100 µM. For the same compound, the TGI [52] was > 100 µM, the TGI [53] was > 100 µM and the TGI [54] was > 100 µM. The TGI [55] was > 100 µM, the TGI [56] was > 100 µM and the TGI [57] was > 100 µM. For the same compound, the TGI [58] was > 100 µM.

In the case of `CCOc1cc(C2SCC(=O)N2c2ccc3c(c2)Oc2c(Cl)c4c(c(Cl)c2=N3)Oc2cc(N3C(=O)CSC3c3ccc(O)c(OCC)c3)ccc2N=4)ccc1O` (stereo not given), the TGI [1] is reported as > 100 µM, the TGI [2] is reported as > 100 µM and the TGI [3] is reported as > 100 µM. For the same compound, the TGI [5] was > 100 µM, the TGI [6] was > 100 µM and the TGI [7] was > 100 µM. For the same compound, the TGI [8] was 59.1 µM, the TGI [9] was 47.6 µM and the TGI [59] was > 100 µM. For the same compound, the TGI [10] was > 100 µM, the TGI [11] was > 100 µM and the TGI [12] was > 100 µM. For the same compound, the TGI [13] was > 100 µM, the TGI [14] was 73.4 µM and the TGI [15] was 28.2 µM. For the same compound, the TGI [16] was 58.9 µM, the TGI [17] was > 100 µM and the TGI [19] was > 100 µM. For the same compound, the TGI [20] was > 100 µM, the TGI [21] was > 100 µM and the TGI [23] was > 100 µM. For the same compound, the TGI [24] was > 100 µM, the TGI [25] was 41.4 µM and the TGI [26] was > 100 µM. For the same compound, the TGI [27] was > 100 µM, the TGI [28] was > 100 µM and the TGI [29] was > 100 µM. For the same compound, the TGI [30] was 93.9 µM, the TGI [31] was > 100 µM and the TGI [32] was 83.4 µM. For the same compound, the TGI [33] was > 100 µM, the TGI [34] was > 100 µM and the TGI [36] was > 100 µM. For the same compound, the TGI [37] was > 100 µM, the TGI [38] was 50.5 µM and the TGI [39] was > 100 µM. The TGI [41] was > 100 µM, the TGI [42] was 66.2 µM and the TGI [44] was > 100 µM. The TGI [45] was > 100 µM, the TGI [46] was > 100 µM and the TGI [47] was > 100 µM. For the same compound, the TGI [48] was > 100 µM, the TGI [49] was > 100 µM and the TGI [50] was 63.8 µM. The TGI [51] was > 100 µM, the TGI [52] was > 100 µM and the TGI [53] was > 100 µM. The TGI [54] was > 100 µM, the TGI [55] was > 100 µM and the TGI [57] was > 100 µM. The TGI [58] was > 100 µM.

Reference: PubChem BioAssay (NCI)
